Source: PubChem BioAssay AID2060504 (Molecular Pharmacology Branch, DTP, NCI, 2025)

Tested on: 636577-100-R-J1-PDC complex spheroid viability
Test: Anticancer human tumor 636577-100-R-J1-PDC patient-derived endometrial adenocarcinoma cell line growth inhibition [GQUAD]
Settings: for IC50: curve of first compound; for viability, T/C: stronger effect = lower value; active = viability on the fitted dose curve at most 10% of control; inactive = the rest
Method in brief: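 Multi-cell-type spheroids of tumor cells with HUVEC and mesenchymal stem cells, treated with drug combinations. Concentrations descend in half-log steps from near clinical Cmax, or from 10 microM where Cmax is unknown; viability read-out.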

[1] = second compound 0.0316 µM, first compound 0.0316 µM
[2] = second compound 0.0316 µM, first compound 0.1 µM
[3] = second compound 0.0316 µM, first compound 0.316 µM
[4] = second compound 0.0316 µM, first compound 1 µM
[5] = second compound 0.0316 µM, first compound 3.16 µM
[6] = second compound 0.0316 µM, first compound 10 µM
[7] = second compound 0.1 µM, first compound 0.0316 µM
[8] = second compound 0.1 µM, first compound 0.1 µM
[9] = second compound 0.1 µM, first compound 0.316 µM
[10] = second compound 0.1 µM, first compound 1 µM
[11] = second compound 0.1 µM, first compound 3.16 µM
[12] = second compound 0.1 µM, first compound 10 µM
[13] = second compound 0.316 µM, first compound 0.0316 µM
[14] = second compound 0.316 µM, first compound 0.1 µM
[15] = second compound 0.316 µM, first compound 0.316 µM
[16] = second compound 0.316 µM, first compound 1 µM
[17] = second compound 0.316 µM, first compound 3.16 µM
[18] = second compound 0.316 µM, first compound 10 µM
[19] = second compound 1 µM, first compound 0.0316 µM
[20] = second compound 1 µM, first compound 0.1 µM
[21] = second compound 1 µM, first compound 0.316 µM
[22] = second compound 1 µM, first compound 1 µM
[23] = second compound 1 µM, first compound 3.16 µM
[24] = second compound 1 µM, first compound 10 µM
[25] = second compound 3.16 µM, first compound 0.0316 µM
[26] = second compound 3.16 µM, first compound 0.1 µM
[27] = second compound 3.16 µM, first compound 0.316 µM
[28] = second compound 3.16 µM, first compound 1 µM
[29] = second compound 3.16 µM, first compound 3.16 µM
[30] = second compound 3.16 µM, first compound 10 µM
[31] = second compound 10 µM, first compound 0.0316 µM
[32] = second compound 10 µM, first compound 0.1 µM
[33] = second compound 10 µM, first compound 0.316 µM
[34] = second compound 10 µM, first compound 1 µM
[35] = second compound 10 µM, first compound 3.16 µM
[36] = second compound 10 µM, first compound 10 µM
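Note: viability read after seven days of drug exposure.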
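Throughout, for viability, T/C: luminescence signal used as a proxy for viable cells; 100% = DMSO vehicle control wells.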

CC(=O)O[C@H]1C(=O)[C@@]2(C)[C@H]([C@H](OC(=O)c3ccccc3)[C@]3(O)C[C@H](OC(=O)[C@H](O)[C@@H](NC(=O)c4ccccc4)c4ccccc4)C(C)=C1C3(C)C)[C@]1(OC(C)=O)CO[C@@H]1C[C@@H]2O + CN(C)c1ccc(Nc2c3ccc(NC(=O)CCN4CCCC4)cc3nc3cc(NC(=O)CCN4CCCC4)ccc23)cc1
active: viability, T/C [10] 8.93% | viability, T/C [11] 9.82% | viability, T/C [12] 8.97% | viability, T/C [31] 4.59% | viability, T/C [32] 3.8% | viability, T/C [33] 2.57% | viability, T/C [34] 3.21% | viability, T/C [35] 3.16% | viability, T/C [36] 2.15%
< 31.6 nM: IC50 (second compound 0.0316 µM) | IC50 (second compound 0.1 µM) | IC50 (second compound 0.316 µM) | IC50 (second compound 1 µM) | IC50 (second compound 3.16 µM) | IC50 (second compound 10 µM)
inactive: viability, T/C [1] 20.1% | viability, T/C [2] 12.8% | viability, T/C [3] 13.3% | viability, T/C [4] 11.8% | viability, T/C [5] 11.5% | viability, T/C [6] 10.8% | viability, T/C [7] 18.8% | viability, T/C [8] 13.5% | viability, T/C [9] 11.4% | viability, T/C [13] 15.9% | viability, T/C [14] 12.3% | viability, T/C [15] 10.4% | viability, T/C [16] 12.6% | viability, T/C [17] 9.5% | viability, T/C [18] 10.1% | viability, T/C [19] 15.9% | viability, T/C [20] 12.8% | viability, T/C [21] 12.5% | viability, T/C [22] 11.6% | viability, T/C [23] 10% | viability, T/C [24] 10.4% | viability, T/C [25] 16.2% | viability, T/C [26] 12.7% | viability, T/C [27] 13.4% | viability, T/C [28] 11.6% | viability, T/C [29] 11.8% | viability, T/C [30] 11.2%

COc1cc(C2c3cc4c(cc3C(OC3OC5COC(C)OC5C(O)C3O)C3COC(=O)C23)OCO4)cc(OC)c1O (stereo not drawn) + CN(C)c1ccc(Nc2c3ccc(NC(=O)CCN4CCCC4)cc3nc3cc(NC(=O)CCN4CCCC4)ccc23)cc1
< 31.6 nM: IC50 (second compound 3.16 µM) | IC50 (second compound 10 µM)
32.4 nM: IC50 (second compound 1 µM)
46.7 nM: IC50 (second compound 0.1 µM)
active: viability, T/C [31] 5.34% | viability, T/C [32] 4.62% | viability, T/C [33] 4.08% | viability, T/C [34] 4.02% | viability, T/C [35] 2.93% | viability, T/C [36] 2.35%
46.9 nM: IC50 (second compound 0.316 µM)
65.1 nM: IC50 (second compound 0.0316 µM)
inactive: viability, T/C [1] 77.5% | viability, T/C [2] 33.3% | viability, T/C [3] 20.7% | viability, T/C [4] 17.2% | viability, T/C [5] 15.7% | viability, T/C [6] 13.8% | viability, T/C [7] 61.4% | viability, T/C [8] 27.9% | viability, T/C [9] 18.8% | viability, T/C [10] 19% | viability, T/C [11] 18.5% | viability, T/C [12] 14.6% | viability, T/C [13] 57% | viability, T/C [14] 37.1% | viability, T/C [15] 22.3% | viability, T/C [16] 17.7% | viability, T/C [17] 15.7% | viability, T/C [18] 12.9% | viability, T/C [19] 50.4% | viability, T/C [20] 30.6% | viability, T/C [21] 18.5% | viability, T/C [22] 20.1% | viability, T/C [23] 16.2% | viability, T/C [24] 13.8% | viability, T/C [25] 27.6% | viability, T/C [26] 20.5% | viability, T/C [27] 19.6% | viability, T/C [28] 17.4% | viability, T/C [29] 16.8% | viability, T/C [30] 13.1%

Nc1ccn(C2OC(CO)C(O)C2(F)F)c(=O)n1 (stereo not drawn) + CN(C)c1ccc(Nc2c3ccc(NC(=O)CCN4CCCC4)cc3nc3cc(NC(=O)CCN4CCCC4)ccc23)cc1
inactive: viability, T/C [1] 17.7% | viability, T/C [2] 13.4% | viability, T/C [3] 14.6% | viability, T/C [4] 17.2% | viability, T/C [5] 16.4% | viability, T/C [6] 15.8% | viability, T/C [7] 17.7% | viability, T/C [8] 14.2% | viability, T/C [9] 14.9% | viability, T/C [10] 14.3% | viability, T/C [11] 14.5% | viability, T/C [12] 18.5% | viability, T/C [13] 16.9% | viability, T/C [14] 11.2% | viability, T/C [15] 14.2% | viability, T/C [16] 17.4% | viability, T/C [17] 16.4% | viability, T/C [18] 15.6% | viability, T/C [19] 15.9% | viability, T/C [20] 16.7% | viability, T/C [21] 15.2% | viability, T/C [22] 17.8% | viability, T/C [23] 16.5% | viability, T/C [24] 17.1% | viability, T/C [25] 16.6% | viability, T/C [26] 13.9% | viability, T/C [27] 15.2% | viability, T/C [28] 14.8% | viability, T/C [29] 16.3% | viability, T/C [30] 14.5%
< 31.6 nM: IC50 (second compound 0.0316 µM) | IC50 (second compound 0.1 µM) | IC50 (second compound 0.316 µM) | IC50 (second compound 1 µM) | IC50 (second compound 3.16 µM) | IC50 (second compound 10 µM)
active: viability, T/C [31] 3.38% | viability, T/C [32] 3.05% | viability, T/C [33] 4% | viability, T/C [34] 3.42% | viability, T/C [35] 3.65% | viability, T/C [36] 3.14%

O=c1[nH]cc(F)c(=O)[nH]1 + CN(C)c1ccc(Nc2c3ccc(NC(=O)CCN4CCCC4)cc3nc3cc(NC(=O)CCN4CCCC4)ccc23)cc1
5530 nM: IC50 (second compound 0.316 µM)
inactive: viability, T/C [1] 83.1% | viability, T/C [2] 85.7% | viability, T/C [3] 87.9% | viability, T/C [4] 79.5% | viability, T/C [5] 62.5% | viability, T/C [6] 30.1% | viability, T/C [7] 105% | viability, T/C [8] 110% | viability, T/C [9] 72.3% | viability, T/C [10] 63.6% | viability, T/C [11] 67.5% | viability, T/C [12] 27.4% | viability, T/C [13] 88% | viability, T/C [14] 75.3% | viability, T/C [15] 75.6% | viability, T/C [16] 79.9% | viability, T/C [17] 69.5% | viability, T/C [18] 29.2% | viability, T/C [19] 67.5% | viability, T/C [20] 88.8% | viability, T/C [21] 70.5% | viability, T/C [22] 65.3% | viability, T/C [23] 50.8% | viability, T/C [24] 26% | viability, T/C [25] 43.7% | viability, T/C [26] 44.2% | viability, T/C [27] 49.5% | viability, T/C [28] 32.1% | viability, T/C [29] 27.7% | viability, T/C [30] 21%
< 31.6 nM: IC50 (second compound 3.16 µM) | IC50 (second compound 10 µM)
4910 nM: IC50 (second compound 0.0316 µM)
active: viability, T/C [31] 7% | viability, T/C [32] 6.98% | viability, T/C [33] 6.89% | viability, T/C [34] 6.25% | viability, T/C [35] 6.48% | viability, T/C [36] 3.81%
3690 nM: IC50 (second compound 0.1 µM)
3160 nM: IC50 (second compound 1 µM)
